From publication PMC4854315, “Discovery of a novel allosteric inhibitor-binding site in ERK5: comparison with the canonical kinase hinge ATP-binding site” (Acta Crystallographica. Section D, Structural Biology, 2016)

Columns and labels:
Assay in all cases: Z'-LYTE kinase panel
Type in all cases: biochemical
ACVR1B (ALK4) = molecular target: T1, ACVR1B (ALK4) (Homo sapiens, UniProt P36896)
T1 construct: purchased ThermoFisher (SelectScreen, Z'-LYTE)
T1 sequence (P36896 24-505): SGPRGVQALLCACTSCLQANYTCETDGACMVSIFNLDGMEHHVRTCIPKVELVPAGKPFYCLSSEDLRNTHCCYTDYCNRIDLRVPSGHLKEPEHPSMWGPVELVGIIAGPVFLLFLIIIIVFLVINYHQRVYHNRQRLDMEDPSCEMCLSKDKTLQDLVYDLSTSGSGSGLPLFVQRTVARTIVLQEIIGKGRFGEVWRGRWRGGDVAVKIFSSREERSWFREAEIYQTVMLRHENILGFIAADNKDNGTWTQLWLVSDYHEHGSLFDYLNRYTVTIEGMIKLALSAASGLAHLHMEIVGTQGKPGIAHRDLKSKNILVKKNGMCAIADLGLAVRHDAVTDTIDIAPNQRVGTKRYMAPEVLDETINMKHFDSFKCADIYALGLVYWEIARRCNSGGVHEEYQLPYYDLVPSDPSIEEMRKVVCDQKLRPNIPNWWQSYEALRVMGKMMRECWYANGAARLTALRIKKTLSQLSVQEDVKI
Summary of the method: (§1)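 Screened at 10 µM against a 225-kinase panel; the Z′-LYTE standard assay gave percentage inhibition values.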

CLK1 = molecular target: T2, CLK1 (Homo sapiens, UniProt P49759)
T2 construct: purchased ThermoFisher (SelectScreen, Z'-LYTE)
T2 sequence (P49759 whole entry): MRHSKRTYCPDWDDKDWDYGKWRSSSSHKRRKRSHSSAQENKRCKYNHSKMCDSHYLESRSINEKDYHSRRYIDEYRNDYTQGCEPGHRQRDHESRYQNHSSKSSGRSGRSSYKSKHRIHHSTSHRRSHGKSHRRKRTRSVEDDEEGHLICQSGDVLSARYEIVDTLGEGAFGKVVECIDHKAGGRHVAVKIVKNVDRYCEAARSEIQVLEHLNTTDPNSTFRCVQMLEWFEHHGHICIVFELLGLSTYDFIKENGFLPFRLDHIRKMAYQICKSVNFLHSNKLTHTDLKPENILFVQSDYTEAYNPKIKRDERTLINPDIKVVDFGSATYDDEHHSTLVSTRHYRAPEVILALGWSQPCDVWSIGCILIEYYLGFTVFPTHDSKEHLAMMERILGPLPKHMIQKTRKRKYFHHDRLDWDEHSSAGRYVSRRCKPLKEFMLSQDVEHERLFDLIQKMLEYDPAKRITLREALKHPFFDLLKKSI
Summary of the method: as §1

IKBKB (IKK beta) = molecular target: T3, IKBKB (IKK beta) (Homo sapiens, UniProt O14920)
T3 construct: purchased ThermoFisher (SelectScreen, Z'-LYTE)
T3 sequence (O14920 1-756): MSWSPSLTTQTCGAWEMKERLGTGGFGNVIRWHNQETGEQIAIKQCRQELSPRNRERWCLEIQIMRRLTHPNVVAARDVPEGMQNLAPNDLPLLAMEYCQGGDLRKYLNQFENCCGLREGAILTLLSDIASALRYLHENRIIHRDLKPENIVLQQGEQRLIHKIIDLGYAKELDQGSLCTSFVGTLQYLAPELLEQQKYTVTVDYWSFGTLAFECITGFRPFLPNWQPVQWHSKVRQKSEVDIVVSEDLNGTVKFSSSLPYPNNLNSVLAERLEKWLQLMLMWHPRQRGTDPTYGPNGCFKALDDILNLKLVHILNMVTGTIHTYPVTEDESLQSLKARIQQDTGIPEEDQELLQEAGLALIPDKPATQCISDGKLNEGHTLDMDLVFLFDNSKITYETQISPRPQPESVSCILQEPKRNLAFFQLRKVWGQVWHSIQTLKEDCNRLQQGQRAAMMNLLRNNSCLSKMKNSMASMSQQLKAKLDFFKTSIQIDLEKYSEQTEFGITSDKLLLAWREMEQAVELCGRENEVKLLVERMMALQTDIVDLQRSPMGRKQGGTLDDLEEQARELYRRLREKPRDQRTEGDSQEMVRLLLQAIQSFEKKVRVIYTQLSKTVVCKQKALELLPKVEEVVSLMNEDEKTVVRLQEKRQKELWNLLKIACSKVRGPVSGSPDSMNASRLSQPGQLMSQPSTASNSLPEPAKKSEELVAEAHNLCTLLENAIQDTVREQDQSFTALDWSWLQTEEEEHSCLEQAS
Summary of the method: as §1

MAPK8 (JNK1) = molecular target: T4, MAPK8 (JNK1) (Homo sapiens, UniProt P45983); conditions: 10 µM compound; ATP 100
T4 construct: purchased ThermoFisher (SelectScreen, Z'-LYTE)
T4 sequence (P45983 whole entry): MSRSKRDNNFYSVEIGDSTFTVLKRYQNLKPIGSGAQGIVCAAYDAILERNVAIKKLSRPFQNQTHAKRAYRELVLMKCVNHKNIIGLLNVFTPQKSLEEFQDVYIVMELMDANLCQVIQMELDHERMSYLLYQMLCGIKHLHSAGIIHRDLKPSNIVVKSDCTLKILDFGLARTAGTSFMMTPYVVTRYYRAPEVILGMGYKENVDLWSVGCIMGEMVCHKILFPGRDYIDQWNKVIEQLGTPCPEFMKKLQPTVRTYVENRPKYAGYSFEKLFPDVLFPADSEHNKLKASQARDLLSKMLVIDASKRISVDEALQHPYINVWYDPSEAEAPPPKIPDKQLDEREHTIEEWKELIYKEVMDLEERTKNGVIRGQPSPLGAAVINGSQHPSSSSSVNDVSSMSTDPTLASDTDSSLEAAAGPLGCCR
Summary of the method: as §1

PRKCB2 (PKC beta II) = molecular target: T5, PRKCB2 (PKC beta II) (Homo sapiens, UniProt P05771)
T5 construct: purchased ThermoFisher (SelectScreen, Z'-LYTE)
T5 sequence (P05771 1-673 isoform P05771-2): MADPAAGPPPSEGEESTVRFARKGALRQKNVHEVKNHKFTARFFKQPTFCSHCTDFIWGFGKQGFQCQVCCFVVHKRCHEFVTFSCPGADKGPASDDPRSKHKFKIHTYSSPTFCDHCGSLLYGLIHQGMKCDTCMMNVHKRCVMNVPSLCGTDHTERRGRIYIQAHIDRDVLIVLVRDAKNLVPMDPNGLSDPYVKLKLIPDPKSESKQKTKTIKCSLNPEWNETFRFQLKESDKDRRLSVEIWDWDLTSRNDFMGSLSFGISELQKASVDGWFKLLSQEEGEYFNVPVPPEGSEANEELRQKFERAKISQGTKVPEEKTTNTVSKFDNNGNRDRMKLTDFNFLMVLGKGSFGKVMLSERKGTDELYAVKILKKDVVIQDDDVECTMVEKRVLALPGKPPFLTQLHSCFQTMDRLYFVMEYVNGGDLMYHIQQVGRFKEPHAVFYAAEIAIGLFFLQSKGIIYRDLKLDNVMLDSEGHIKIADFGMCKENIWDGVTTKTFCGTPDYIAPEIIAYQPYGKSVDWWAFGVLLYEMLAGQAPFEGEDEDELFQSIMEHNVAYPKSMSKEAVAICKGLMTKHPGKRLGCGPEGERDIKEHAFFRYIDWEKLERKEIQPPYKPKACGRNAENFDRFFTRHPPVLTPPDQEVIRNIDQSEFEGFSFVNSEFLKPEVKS
Summary of the method: as §1

PRKD1 (PKC mu) = molecular target: T6, PRKD1 (PKC mu) (Homo sapiens, UniProt Q15139)
T6 construct: purchased ThermoFisher (SelectScreen, Z'-LYTE)
T6 sequence (Q15139 1-912): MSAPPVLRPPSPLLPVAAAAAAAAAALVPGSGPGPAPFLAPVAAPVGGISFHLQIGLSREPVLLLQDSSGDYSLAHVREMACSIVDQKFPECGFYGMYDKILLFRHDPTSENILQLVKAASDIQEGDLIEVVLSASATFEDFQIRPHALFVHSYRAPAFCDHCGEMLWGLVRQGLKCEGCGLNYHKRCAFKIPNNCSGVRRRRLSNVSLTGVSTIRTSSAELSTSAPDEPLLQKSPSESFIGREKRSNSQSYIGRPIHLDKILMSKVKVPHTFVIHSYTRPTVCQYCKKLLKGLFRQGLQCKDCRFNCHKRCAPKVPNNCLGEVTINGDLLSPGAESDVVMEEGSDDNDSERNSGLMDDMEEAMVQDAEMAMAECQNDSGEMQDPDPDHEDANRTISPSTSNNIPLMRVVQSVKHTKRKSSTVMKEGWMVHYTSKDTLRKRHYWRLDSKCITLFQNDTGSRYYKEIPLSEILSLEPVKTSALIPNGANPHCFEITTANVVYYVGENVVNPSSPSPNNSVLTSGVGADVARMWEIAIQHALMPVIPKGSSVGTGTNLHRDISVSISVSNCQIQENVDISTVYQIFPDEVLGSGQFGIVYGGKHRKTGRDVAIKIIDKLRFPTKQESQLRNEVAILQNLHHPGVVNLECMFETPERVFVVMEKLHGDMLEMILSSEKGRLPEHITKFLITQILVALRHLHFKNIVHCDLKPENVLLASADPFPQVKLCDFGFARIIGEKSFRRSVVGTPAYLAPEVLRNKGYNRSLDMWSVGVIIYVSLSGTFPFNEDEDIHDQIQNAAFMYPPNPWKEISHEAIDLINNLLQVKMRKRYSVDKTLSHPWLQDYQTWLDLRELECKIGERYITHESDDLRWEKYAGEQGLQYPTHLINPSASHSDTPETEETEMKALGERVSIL
Summary of the method: as §1

Row | Molecule | inhibition at 10 µM (ACVR1B (ALK4)) | inhibition at 10 µM (CLK1) | inhibition at 10 µM (IKBKB (IKK beta)) | inhibition at 10 µM (MAPK8 (JNK1)) | inhibition at 10 µM (PRKCB2 (PKC beta II)) | inhibition at 10 µM (PRKD1 (PKC mu)) | ACVR1B (ALK4) % Inhibition (ACVR1B (ALK4); 10 µM compound, ATP Km app) | CLK1 % Inhibition (CLK1; 10 µM compound, ATP Km app) | IKBKB (IKK beta) % Inhibition (IKBKB (IKK beta); 10 µM compound, ATP Km app) | MAPK8 (JNK1) % Inhibition (MAPK8 (JNK1)) | PRKCB2 (PKC beta II) % Inhibition (PRKCB2 (PKC beta II); 10 µM compound, ATP Km app) | PRKD1 (PKC mu) % Inhibition (PRKD1 (PKC mu); 10 µM compound, ATP Km app)
1 | Cc1ncc(-c2nc(Nc3ccc(C(=O)NCCN4CCCCC4)cc3)ncc2F)n1C(C)C [Compound 3] | 52% | 101% | 33% | 96% | 89% | 93% | – | – | – | – | – | –
2 | Cc1cc(Nc2nc(N)nn2C(=O)NC(C)C)ccc1Cl [Compound 5] | -8% | 10% | 3.42% | -11% | -12% | 15% | – | – | – | – | – | –
3 | XMD8-92 [Compound 2, reference compound] | – | – | – | – | – | – | -2.75% | 6% | 44% | 14% | 38% | 17%
